This note sets out measurements from patent US20150274777A1, “KETOAMIDE IMMUNOPROTEASOME INHIBITORS” (HOFFMANN-LA ROCHE INC., priority 2012, published 2015).

A value given as a limit tells only on which side of the number the result lay.

One test addresses T1, β5i (Homo sapiens, UniProt P20618+P28062).
T1 construct: protease activity associated with the proteasome complex in cultured cells; endogenous in cells; host or cells: Ramos cells
Kind of test: Cell-Based Proteasome Activity/Selectivity Assay (Ramos cells), substrate (ANW)2Rh110. The settings on record: highest concentration tested 20 μM, read-out: Ic50 ramos:ac-(anw)2-r110. The source says:
(§1) Cell-Based Proteasome Activity/Selectivity Assay
(§2) The Cell-Based Proteasome subunit activity/selectivity assay was a panel of 5 fluorogenic assays that independently measured the activity of β5c or β5i (chymotrypsin-like activity), β2c/2i (trypsin-like), and β1c or β1i (caspase-like) protease activity associated with the proteasome complex in cultured cells. Specifically, the following substrates were used for respective subunit activities: β1i: (PAL)2Rh110, β1c: (LLE)2 Rh110, β2c/2i: (KQL)2Rh110, β5c: (WLA)2Rh110, β5i: (ANW)2Rh110. The following procedure was followed:
(§3) Cell preparation: Plated 25 μl of Ramos cells (2×10^6/ml in DPBS) into half area plate (PerkinElmer Cat 6005569) to final 5×10^4 cells/well. Added 0.5 μl of 100×4-fold serial diluted test compounds or DMSO to each well. Highest concentration of compound tested was 20 μM, thus compound serial dilution started from […]. Incubated for 30 minutes at 37° C. Then equilibrated at room temperature for 15 minutes. Added 25 μl of 2× reaction mix consisting of 0.025% digitonin, 20 μM of each substrates and 0.5M sucrose in DPBS. Shaked for one minute @ 700 rpm. Incubated for 120 min at room temperature. Then read the plates with an Envision multilabel plate reader (PerkinElmer) with 500 nm excitation/519 nm emission.

The next test has as its target T2, β5c (Homo sapiens, UniProt P20618+P28074).
T2 construct: protease activity associated with the proteasome complex in cultured cells; endogenous in cells; host or cells: Ramos cells
Kind of test: Cell-Based Proteasome Activity/Selectivity Assay (Ramos cells), substrate (WLA)2Rh110. To be noted: highest concentration tested 20 μM.
From the text: as §1, §2, §3

The test system of another test is β2c/2i. Nature of the test: Cell-Based Proteasome Activity/Selectivity Assay (Ramos cells), substrate (KQL)2Rh110. The settings on record: highest concentration tested 20 μM.
From the text: as §1, §2, §3

The next test deals with T3, β1c (Homo sapiens, UniProt P28072+Q99436).
T3 construct: protease activity associated with the proteasome complex in cultured cells; endogenous in cells; host or cells: Ramos cells
Nature of the test: Cell-Based Proteasome Activity/Selectivity Assay (Ramos cells), substrate (LLE)2 Rh110. To be noted: highest concentration tested 20 μM.
From the text: as §1, §2, §3

The test system of test [1] is IP10 level in PBMCs stimulated with CpG Type A. Nature of the test: PBMC IP-10 Assay. In kind it is cell-based. The settings on record: CpG Type A 2.5 μM. On the procedure:
PBMCs were isolated from whole blood as follows: Blood was collected in a sterile environment in heparinized tubes. Blood was diluted with an equal volume PBS/2% FCS and 30 ml of this mixture was added to ACCUSPIN tubes containing 15 ml Histopaque-1077 already centrifuged at 800 g for 30 seconds and warmed up at room temperature. The tubes were then centrifuged at 800 g for 20 minutes at room temperature with no brake. The mononuclear band, just above the polyethylene frit, was removed by Pasteur pipet. These mononuclear cells were washed three times with sterile PBS, counted, and resuspended in RPMI 1640 supplemented with 10% heat inactivated fetal calf serum, 10 mM HEPES, 1 mM sodium pyruvate, penicillin (50 U/ml), streptomycin (50 μg/ml) and glutamine (2 mM) to approximately 1.5×10^6/ml. Approximately 2×10^5 cells/well were plated in 96 well tissue culture plates (BD Falcon 353072), and preincubated 60 mi/37° C. with a titration of compounds, in a final concentration of 1% DMSO. Cells were then stimulated with CpG Type A (Invivogen, Cat #tlrl-2216; ODN 2216) at a final concentration of 2.5 μM. Cells were incubated overnight, and supernatants were removed. PBMC viability of cells remaining in the well was measured with ATPlite luminescence assay (Perkin-Elmer) per the manufacturer's instructions. Luminescence was measured on the Perkin-Elmer Envision, using the luminescence filter. IP10 level was measured with CXCL10/IP10 AlphaLISA kit (Perkin-Elmer) per the manufacturer's instructions, except halving all volumes. Fluorescence was measured on the Envision Multilabel plate reader, using the AlphaScreen standard settings.

A further test addresses T4, β1i (Homo sapiens, UniProt P28065+P40306).
T4 construct: protease activity associated with the proteasome complex in cultured cells; endogenous in cells; host or cells: Ramos cells
Kind of test: Cell-Based Proteasome Activity/Selectivity Assay (Ramos cells), substrate (PAL)2Rh110. The settings on record: highest concentration tested 20 μM.
From the text: as §1, §2, §3

Usually IC50 stands for the concentration that gives 50% inhibition. The term EC50 denotes the concentration at which the effect is half-maximal. A higher EC50 goes with a less potent agent. Regarding `CCCC[C@H](NC(=O)[C@H](Cc1c[nH]c2ccccc12)NC(=O)[C@H](C)NC(=O)c1cccc(Cl)c1Cl)C(=O)C(=O)NCc1ccccc1` [Example 12, N-{(S)-1-[(S)-1-((S)-1-Benzylaminooxalyl-pentylcarbamoyl)-2-(1H-indol-3-yl)-ethylcarbamoyl]-ethyl}-2,3-dichloro-benzamide], the IC50 on β5i is 0.036 µM; at β5c it was 0.381 µM; in the test on β2c/2i it was above 20 µM; on β1c, 5.43 µM. Further, in test [1], the midpoint of the response, the EC50, lay at 2.61 µM.
`Cc1cc(C(=O)N[C@@H](C)C(=O)N[C@@H](Cc2c[nH]c3ccccc23)C(=O)N[C@@H](Cc2ccccc2)C(=O)C(=O)NCc2ccccc2)no1` [Example 47, 5-Methyl-isoxazole-3-carboxylic acid {(S)-1-[(S)-1-((S)-1-benzyl-2-benzylcarbamoyl-2-oxo-ethylcarbamoyl)-2-(1H-indol-3-yl)-ethylcarbamoyl]-ethyl}-amide]: the IC50 at β5i was 0.034 µM; at β5c it was 1.39 µM; with β2c/2i, above 20 µM; against β1i it was 0.705 µM; against β1c, 6.27 µM. The same compound registered an EC50 in test [1] of 2.29 µM.
`CC(C)C[C@H](NC(=O)[C@H](C)NC(=O)OCc1ccccc1)C(=O)N[C@@H](Cc1ccccc1)C(=O)C(=O)NCc1ccccc1` [Example 36, {(S)-1-[(S)-1-((S)-1-Benzyl-2-benzylcarbamoyl-2-oxo-ethylcarbamoyl)-3-methyl-butylcarbamoyl]-ethyl}-carbamic acid benzyl ester]: the IC50 at β5i is 0.062 µM; on β5c, 0.973 µM; in the test on β2c/2i, above 20 µM; against β1i, 0.359 µM; on β1c, above 20 µM. The same compound came in with an EC50 in test [1] of 2.8 µM.
As for `CCCC[C@H](NC(=O)[C@H](Cc1c[nH]c2ccccc12)NC(=O)[C@H](C)NC(=O)CN1CCOCC1)C(=O)C(=O)NCc1ccccc1` [Example 10, (S)-3-{(S)-3-(1H-Indol-3-yl)-2-[(S)-2-(2-morpholin-4-yl-acetylamino)-propionylamino]-propionylamino}-2-oxo-heptanoic acid benzylamide], the IC50 on β5i was 0.709 µM; against β5c it was 1.9 µM; with β2c/2i it was above 20 µM; at β1i it was 0.275 µM; at β1c, above 20 µM.
`CCCC[C@H](NC(=O)[C@H](Cc1ccc(OC)cc1)NC(=O)[C@H](C)NC(=O)CN1CCOCC1)C(=O)C(=O)NC` [Example 14, (S)-3-{(S)-3-(4-Methoxy-phenyl)-2-[(S)-2-(2-morpholin-4-yl-acetylamino)-propionylamino]-propionylamino}-2-oxo-heptanoic acid methylamide]: the IC50 at β5i is 0.699 µM; against β5c, 16.5 µM; in the test with β2c/2i it was above 20 µM; at β1i, 0.426 µM; at β1c, above 20 µM. The compound further showed an EC50 in test [1] of 5.17 µM.
On to `COc1ccc(C[C@H](NC(=O)[C@H](C)NC(=O)c2cn3ccccc3n2)C(=O)N[C@@H](Cc2ccccc2)C(=O)C(=O)NCc2ccccc2)cc1` [Example 49, Imidazo[1,2-a]pyridine-2-carboxylic acid {(S)-1-[(S)-1-((S)-1-benzyl-2-benzylcarbamoyl-2-oxo-ethylcarbamoyl)-2-(4-methoxy-phenyl)-ethylcarbamoyl]-ethyl}-amide], for which the IC50 was 0.105 µM at β5i; 1.93 µM against β5c; above 20 µM in the test on β2c/2i; 0.499 µM against β1i; 17.5 µM on β1c. Also, it took 4.37 µM to reach a half-maximal effect in test [1] (EC50).
As to `C[C@H](NC(=O)C1Cc2ccccc2C1)C(=O)N[C@@H](Cc1c[nH]c2ccccc12)C(=O)N[C@@H](Cc1ccccc1)C(=O)C(=O)NCc1ccccc1` [Example 18, Indan-2-carboxylic acid {(S)-1-[(S)-1-((S)-1-benzyl-2-benzylcarbamoyl-2-oxo-ethylcarbamoyl)-2-(1H-indol-3-yl)-ethylcarbamoyl]-ethyl}-amide], the IC50 at β5i amounted to 0.005 µM; against β5c, 0.173 µM; in the test with β2c/2i, 7.02 µM; against β1i it was 0.441 µM; against β1c it was 3.28 µM. Moreover, in test [1], the midpoint of the response, the EC50, lay at 0.672 µM.
With `Cc1cc(C(=O)N[C@@H](C)C(=O)N[C@@H](Cc2ccccc2)C(=O)N[C@@H](Cc2ccccc2)C(=O)C(=O)NCc2ccccc2)n(C)n1` [Example 53, 2,5-Dimethyl-2H-pyrazole-3-carboxylic acid {(S)-1-[(S)-1-((S)-1-benzyl-2-benzylcarbamoyl-2-oxo-ethylcarbamoyl)-2-phenyl-ethylcarbamoyl]-ethyl}-amide], the IC50 at β5i is 0.221 µM; at β5c, 1.36 µM; with β2c/2i it was above 20 µM; at β1i, 1.78 µM; against β1c, above 20 µM. In addition, a half-maximal response in test [1] (EC50) required 4.9 µM.
Consider `CC(C)C[C@H](NC(=O)[C@H](C)NC(=O)C1Cc2ccccc2C1)C(=O)N[C@@H](Cc1ccccc1)C(=O)C(=O)NCc1ccccc1` [Example 24, Indan-2-carboxylic acid {(S)-1-[(S)-1-((S)-1-benzyl-2-benzylcarbamoyl-2-oxo-ethylcarbamoyl)-3-methyl-butylcarbamoyl]-ethyl}-amide], for which the concentration for half-maximal inhibition (IC50) is 0.005 µM on β5i; 0.272 µM against β5c; 5.71 µM in the test on β2c/2i; 0.441 µM at β1i; 7.05 µM against β1c. Moreover, in test [1], the midpoint of the response, the EC50, lay at 0.433 µM.
Turning to `CNC(=O)C(=O)[C@H](Cc1ccccc1)NC(=O)[C@H](Cc1c[nH]c2ccccc12)NC(=O)[C@H](C)NC(=O)OCc1ccccc1` [Example 31, {(S)-1-[(S)-1-((S)-1-Benzyl-2-methylcarbamoyl-2-oxo-ethylcarbamoyl)-2-(1H-indol-3-yl)-ethylcarbamoyl]-ethyl}-carbamic acid benzyl ester], the IC50 on β5i was 0.034 µM; against β5c, 0.738 µM; in the test with β2c/2i it was above 20 µM; against β1i, 0.244 µM; on β1c, 13.1 µM. In test [1], this compound displayed an EC50 of 1.18 µM.
As to `CCCC[C@H](NC(=O)[C@H](Cc1c[nH]c2ccccc12)NC(=O)[C@H](C)NC(=O)C1=C(C)c2ccccc2C1)C(=O)C(=O)N[C@H](C)c1ccccc1` [Example 8], the IC50 on β5i was 0.033 µM; on β5c it was 0.771 µM; in the test on β2c/2i, above 20 µM; against β1i it was 0.504 µM; against β1c, 11.1 µM. Further, in test [1], the EC50 came to 1.78 µM.
Turning to `CCCC[C@H](NC(=O)[C@H](Cc1c[nH]c2ccccc12)NC(=O)[C@H](C)NC(=O)C1Cc2ccccc2C1)C(=O)C(=O)NCc1ccccc1` [Example 11, Indan-2-carboxylic acid {(S)-1-[(S)-1-((S)-1-benzylaminooxalyl-pentylcarbamoyl)-2-(1H-indol-3-yl)-ethylcarbamoyl]-ethyl}-amide], the IC50 was found to be 0.014 µM at β5i, 0.473 µM against β5c, 8.04 µM in the test with β2c/2i and 2.98 µM against β1c. A half-maximal response in test [1] (EC50) required 1.22 µM.
Taken in the same sequence, the figures for `CCCC[C@H](NC(=O)[C@H](Cc1c[nH]c2ccccc12)NC(=O)[C@H](C)NC(=O)c1ccnn1C)C(=O)C(=O)NCc1ccccc1` [Example 13, 2-Methyl-2H-pyrazole-3-carboxylic acid {(S)-1-[(S)-1-((S)-1-benzylaminooxalyl-pentylcarbamoyl)-2-(1H-indol-3-yl)-ethylcarbamoyl]-ethyl}-amide] were 0.403 µM, 2.96 µM, above 20 µM, 9.56 µM and 3.97 µM.
